Data from patent publication US9120779B2, “Inhibitors of HCV NS5A” (PRESIDIO PHARMACEUTICALS, INC., priority 2008, dated 2015).

System: HCV genotype 1b replicon in Huh 7 cells
Test: HCV replicon assay (luciferase readout, 1b_Huh-Luc/Neo-ET cell line)
Type: cell-based
Conditions: Hepatitis C virus, Huh-7, 72 h, read-out: Inhibition of HCV genotype 1b, Table 1, 72 h incubation
Experimental: Biological activity of the compounds of the invention was determined using an HCV replicon assay. The 1b_Huh-Luc/Neo-ET cell line persistently expressing a bicistronic genotype 1b replicon in Huh 7 cells was obtained from R^eBLikon GMBH. This cell line was used to test compound inhibition using luciferase enzyme activity readout as a measurement of compound inhibition of replicon levels.
On Day 1 (the day after plating), each compound is added in triplicate to the cells. Plates incubated for 72 h prior to running the luciferase assay. Enzyme activity was measured using a Bright-Glo Kit (cat. number E2620) manufactured by Promega Corporation. The following equation was used to generate a percent control value for each compound. % Control=(Average Compound Value/Average Control)*100
The EC50 value was determined using GraphPad Prism and the following equation: Y=Bottom+(Top−Bottom)/(1+10^((Log IC50−X)*HillSlope))
EC50 values of compounds are repeated several times in the replicon assay.
Example compounds of the disclosed invention are illustrated in Tables 1-9 attached as appendices. The tables show inhibitory activity of many of the example compounds with respect to HCV 1b. […] The tables further provide mass spectrometry results for the synthesized example compounds.

| SMILES | EC50 |
| --- | --- |
| CN(C)[C@@H](C(=O)N1CCC[C@H]1c1ncc(C2CCC(c3ccc(-c4cnc([C@@H]5CCCN5C(=O)[C@H](NC(=O)C5CC5)c5ccccc5)[nH]4)cc3)CC2)[nH]1)c1ccccc1 (stereo partly drawn) [compound 380] | < 1 nM |
| CC(C)[C@@H](NC(=O)OC(C)(C)C)C(=O)N1CCC[C@H]1C(=O)N[C@H]1CC[C@H](c2ccc(-c3cnc([C@@H]4CCCN4C(=O)[C@H](NC(=O)OC(C)(C)C)C(C)C)[nH]3)cc2)CC1 [compound 356] | 10 to 999 nM |
| CC(C)[C@H](NC(=O)N1CCOCC1)C(=O)N1CCC[C@H]1c1ncc(-c2ccc([C@H]3CC[C@H](c4cnc([C@@H]5CCCN5C(=O)[C@@H](NC(=O)N5CCOCC5)C(C)C)[nH]4)CC3)cc2)[nH]1 [compound 385] | 10 to 999 nM |
| COC(=O)N[C@H](C(=O)N1CCC[C@H]1c1ncc(-c2ccc([C@H]3CC[C@H](c4cnc([C@@H]5CCCN5C(=O)[C@H](NC(=O)N5CCC(O)CC5)c5ccccc5)[nH]4)CC3)cc2)[nH]1)C(C)C [compound 2003] | < 1 nM |
| O=C(N[C@@H](C(=O)N1CCC[C@H]1C(=O)N[C@H]1CC[C@@H](c2ccc(-c3cnc([C@@H]4CCCN4C(=O)[C@H](NC(=O)C4CC4)c4ccccc4)[nH]3)cc2)CC1)c1ccccc1)C1CC1 [compound 351] | < 1 nM |
| CC(C)[C@@H](NC(=O)OC(C)(C)C)C(=O)N1CCC[C@H]1c1ncc(-c2ccc(C3CCC(c4cnc([C@@H]5CCCN5C(=O)[C@H](NC(=O)OC(C)(C)C)C(C)C)[nH]4)CC3)cc2)[nH]1 (stereo partly drawn) [compound 366] | 10 to 999 nM |

Same assay, conditions: Hepatitis C virus, Huh-7, 72 h, read-out: Inhibition of HCV genotype 1b, Table 2, 72 h incubation

| SMILES | EC50 |
| --- | --- |
| CC(C)(C)OC(=O)N[C@@H](C(=O)N1CCC[C@H]1c1ncc(-c2ccc(-c3ccc4nc([C@@H]5CCCN5C(=O)[C@H](NC(=O)OC(C)(C)C)c5ccccc5)[nH]c4c3)cc2)[nH]1)c1ccccc1 [compound 400] | < 1 nM |

Same assay, conditions: Hepatitis C virus, Huh-7, 72 h, read-out: Inhibition of HCV genotype 1b, Table 3, 72 h incubation

| SMILES | EC50 |
| --- | --- |
| COC(=O)N[C@@H](C(=O)N1CCC[C@H]1c1ncc(-c2cc(F)c(N3CCC(c4cnc([C@@H]5CCCN5C(=O)[C@H](NC(=O)N5CCN(C)CC5)c5ccccc5)[nH]4)CC3)c(F)c2)[nH]1)c1ccccc1 [compound 462] | < 1 nM |
| CCOC(=O)N[C@@H](C(=O)N1CCC[C@H]1c1ncc(C2CCN(c3c(F)cc(-c4cnc([C@@H]5CCCN5C(=O)[C@H](NC(=O)OC)c5ccccc5)[nH]4)cc3F)CC2)[nH]1)c1ccccc1 [compound 476] | < 1 nM |
| COC(=O)N[C@@H](C(=O)N1CCC[C@H]1c1ncc(-c2cc(F)c(N3CCC(c4cnc([C@@H]5CCCN5C(=O)[C@@H](c5ccccc5)N(C)C)[nH]4)CC3)c(F)c2)[nH]1)c1ccccc1 [compound 458] | < 1 nM |
| O=C(N[C@@H](C(=O)N1CCC[C@H]1c1ncc(-c2ccc(N3CCC(c4cnc([C@@H]5CCCN5C(=O)[C@H](NC(=O)C5CC5)c5ccccc5)[nH]4)CC3)c(F)c2)[nH]1)c1ccccc1)C1CC1 [compound 451] | < 1 nM |
| CC(C)(C)OC(=O)N[C@@H](C(=O)N1CCC[C@H]1C(=O)NC1CCN(c2ccc(-c3cnc([C@@H]4CCCN4C(=O)[C@H](NC(=O)OC(C)(C)C)c4ccccc4)[nH]3)cc2F)CC1)c1ccccc1 [compound 453] | < 1 nM |
| COC(=O)N[C@@H](C(=O)N1CCC[C@H]1c1ncc(C2CCN(c3c(F)cc(-c4cnc([C@@H]5CCCN5C(=O)[C@H](NC(=O)N5CCOCC5)c5ccccc5)[nH]4)cc3F)CC2)[nH]1)c1ccccc1 [compound 481] | < 1 nM |

Same assay, conditions: Hepatitis C virus, Huh-7, 72 h, read-out: Inhibition of HCV genotype 1b, Table 4, 72 h incubation

| SMILES | EC50 |
| --- | --- |
| COC(=O)N[C@@H](C(=O)N1CCC[C@H]1c1nc2ccc(-c3ccc(-c4ccc5nc([C@@H]6CCCN6C(=O)[C@H](NC(=O)OC)C(C)C)[nH]c5c4)cc3)cc2[nH]1)C(C)C [compound 2035] | 10 to 999 nM |
| O=C(N[C@@H](C(=O)N1CCC[C@H]1c1nc2ccc(-c3ccc(-c4ccc5nc([C@@H]6CCCN6C(=O)[C@H](NC(=O)C6CC6)c6ccccc6)[nH]c5c4)cc3)cc2[nH]1)c1ccccc1)C1CC1 [compound 930] | < 1 nM |
| COC(=O)N[C@H](C(=O)N[C@@H](C)c1nc2ccc(-c3ccc(-c4ccc5nc([C@@H]6CCCN6C(=O)[C@@H](C(C)C)N(C)C)[nH]c5c4)cc3)cc2[nH]1)C(C)C [compound 938] | < 1 nM |

Same assay, conditions: Hepatitis C virus, Huh-7, 72 h, read-out: Inhibition of HCV genotype 1b, Table 5, 72 h incubation

| SMILES | EC50 |
| --- | --- |
| COC(=O)N[C@H](C(=O)N1CCC[C@H]1c1ncc(-c2ccc(C34CCC(c5cnc([C@@H]6CCCN6C(=O)[C@@H](NC(=O)OC6CCOCC6)C(C)C)[nH]5)(CC3)CC4)cc2)[nH]1)C(C)C [compound 2053] | 1 to 9.9 nM |
| COC(=O)N[C@@H](C)C(=O)N1CCC[C@H]1c1ncc(C23CCC(c4ccc(-c5cnc([C@@H]6CCCN6C(=O)[C@@H](NC(=O)OC)C(C)C)[nH]5)cc4)(CC2)CC3)[nH]1 [compound 2061] | < 1 nM |
| CCN(CC)[C@@H](C(=O)N1CCC[C@H]1c1ncc(C23CCC(c4ccc(-c5cnc([C@@H]6CCCN6C(=O)[C@H](NC(=O)OC)c6ccccc6)[nH]5)cc4)(CC2)CC3)[nH]1)c1ccccc1 [compound 619] | < 1 nM |
| COC(=O)N[C@H](C(=O)N1CCC[C@H]1c1ncc(C23CCC(c4ccc(-c5cnc([C@@H]6CCCN6C(=O)[C@H](C(C)C)N6CCC(O)CC6)[nH]5)cc4)(CC2)CC3)[nH]1)C(C)C [compound 2071] | < 1 nM |
| COC(=O)N[C@H](C(=O)N1CCC[C@H]1c1ncc(-c2ccc(C34CCC(c5cnc([C@@H]6CCCN6C(=O)[C@@H](NC(=O)N6CCCCC6)C(C)C)[nH]5)(CC3)CC4)cc2)[nH]1)C(C)C [compound 640] | > 1000 nM |
| CCC(C)[C@H](NC(=O)OC)C(=O)N1CCC[C@H]1c1ncc(-c2ccc(C34CCC(c5cnc([C@@H]6CCCN6C(=O)[C@@H](NC(=O)OC)C(C)CC)[nH]5)(CC3)CC4)cc2)[nH]1 (stereo partly drawn) [compound 2092] | < 1 nM |
| CC[C@H](C)[C@H](NC(=O)OC)C(=O)N1CCC[C@H]1c1ncc(C23CCC(c4ccc(-c5cnc([C@@H]6CCCN6C(=O)[C@@H](NC(=O)OC)C(C)C)[nH]5)cc4)(CC2)CC3)[nH]1 [compound 2066] | < 1 nM |
| COC(=O)N[C@H](C(=O)N1CCC[C@H]1c1ncc(-c2ccc(C34CCC(c5cnc([C@@H]6CCCN6C(=O)[C@@H](C(C)C)N(C)C)[nH]5)(CC3)CC4)cc2)[nH]1)C(C)C [compound 2057] | < 1 nM |
| COC(=O)N[C@H](C(=O)N1CCC[C@H]1c1ncc(-c2ccc(C34CCC(c5cnc([C@@H]6CCCN6C(=O)[C@@H](NC(=O)C6CCOCC6)C(C)C)[nH]5)(CC3)CC4)cc2)[nH]1)C(C)C [compound 641] | > 1000 nM |
| COC(=O)N[C@H](C(=O)N1CCC[C@H]1c1ncc(C23CCC(c4ccc(-c5cnc([C@@H]6CCCN6C(=O)[C@@H](c6ccccc6)N(C)C)[nH]5)cc4)(CC2)CC3)[nH]1)C(C)C [compound 2067] | < 1 nM |
| COC(=O)NC(C(=O)N1CCC[C@H]1c1ncc(-c2ccc(C34CCC(c5cnc([C@H](C)NC(=O)[C@@H](NC(=O)OC)C(C)C)[nH]5)(CC3)CC4)cc2)[nH]1)c1ccccc1 (stereo partly drawn) [compound 2105] | < 1 nM |
| COC(=O)N[C@H](C(=O)N1CCC[C@H]1c1ncc(C23CCC(c4ccc(-c5cnc([C@@H]6CCCN6C(=O)[C@H](NC(=O)N6CCC(O)CC6)C(C)C)[nH]5)cc4)(CC2)CC3)[nH]1)C(C)C [compound 2076] | < 1 nM |

Same assay, conditions: Hepatitis C virus, Huh-7, 72 h, read-out: Inhibition of HCV genotype 1b, Table 6, 72 h incubation

| SMILES | EC50 |
| --- | --- |
| COC(=O)N[C@H](C(=O)N1CCC[C@H]1c1nc2ccc(-c3ccc4nc([C@@H]5CCCN5C(=O)[C@@H](NC(=O)OC)C(C)C)[nH]c4c3)cc2[nH]1)C(C)C [Compound 850] | < 1 nM |

Same assay, conditions: read-out: Inhibition of HCV genotype 1b, Table 5, 72 h incubation

| SMILES | EC50 |
| --- | --- |
| COC(=O)N[C@H](C(=O)N1CCC[C@H]1c1ncc(-c2ccc(C34CCC(c5cnc([C@@H]6CCCN6C(=O)[C@@H](NC(=O)N6CCOCC6)C(C)C)[nH]5)(CC3)CC4)cc2)[nH]1)C(C)C [compound 636] | < 1 nM |
